Experimental data published in patent US20070082880A1 (priority 2005, published 2007).
Counter-ions that a name gives are not always drawn.

What was measured:
[1] = biological target: T1, human PKCθ full length enzyme (Homo sapiens, UniProt Q04759); experiment: PKCθ IMAP Assay; assay type: biochemical; settings: average value when one or more samples were tested; ATP 6 uM, PKCθ 1 nM
T1 construct: human PKCθ full length enzyme (Panvera Catalog No. P2996); purchased Panvera P2996
Summary of the method: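 Full-length human PKCθ (1 nM final) with 6 uM ATP and 100 nM 5FAM-labelled peptide, 5% DMSO, 3.0 mM DTT in reaction buffer. 25 min at room temperature; IMAP bead binding 20 min, fluorescence polarization read. Compounds 2:1 serially diluted; no-ATP and no-enzyme wells as controls.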

T1 sequence (Q04759 whole entry): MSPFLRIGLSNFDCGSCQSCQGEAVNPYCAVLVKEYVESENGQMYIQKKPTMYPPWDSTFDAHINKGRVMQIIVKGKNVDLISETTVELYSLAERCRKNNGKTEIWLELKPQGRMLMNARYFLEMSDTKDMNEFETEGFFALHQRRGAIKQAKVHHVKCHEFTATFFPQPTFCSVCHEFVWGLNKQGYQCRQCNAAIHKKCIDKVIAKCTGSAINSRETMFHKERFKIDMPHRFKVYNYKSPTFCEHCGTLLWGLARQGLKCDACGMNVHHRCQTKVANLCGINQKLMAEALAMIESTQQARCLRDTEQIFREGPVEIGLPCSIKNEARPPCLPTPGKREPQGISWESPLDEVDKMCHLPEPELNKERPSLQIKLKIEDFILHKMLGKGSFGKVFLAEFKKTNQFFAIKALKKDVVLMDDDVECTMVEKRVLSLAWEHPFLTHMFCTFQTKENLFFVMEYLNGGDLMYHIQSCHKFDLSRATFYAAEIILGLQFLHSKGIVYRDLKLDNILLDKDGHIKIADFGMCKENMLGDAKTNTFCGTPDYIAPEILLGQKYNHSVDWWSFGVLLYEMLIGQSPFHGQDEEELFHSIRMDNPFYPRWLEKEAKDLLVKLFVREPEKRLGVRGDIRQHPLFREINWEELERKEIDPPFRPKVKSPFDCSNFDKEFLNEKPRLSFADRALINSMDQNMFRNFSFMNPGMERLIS

Compound	melting point	IC50 [1] [µM]
Cl.N#Cc1cnc2sc(I)cc2c1Nc1ccc2[nH]ccc2c1	250 to 252 °C	
Cl.N#Cc1cnc2sc(I)cc2c1Nc1cccc2[nH]ccc12	> 245 °C	
Br.N#Cc1cnc2scc(Br)c2c1Nc1ccc2[nH]ccc2c1	249 to 251 °C	
Cc1c(Nc2c(C#N)cnc3sc(C#C[Si](C)(C)C)cc23)ccc2[nH]ccc12	258 to 260 °C	
Cc1c(Nc2c(C#N)cnc3sc(/C=C/CN4CCOCC4)cc23)ccc2[nH]ccc12 (as salt: HCl) [Compound 275, 4-[(4-methyl-1H-indol-5-yl)amino]-2-[(1E)-3-morpholin-4-ylprop-1-en-1-yl]thieno[2,3-b]pyridine-5-carbonitrile]	230 °C (dec.)	
Cc1c(Nc2c(C#N)cnc3sc(C4CCN(Cc5ccccc5)C4)cc23)ccc2[nH]ccc12 (stereo not shown) (as salt: HCl) [Compound 479, 2-(1-benzylpyrrolidin-3-yl)-4-[(4-methyl-1H-indol-5-yl)amino]thieno[2,3-b]pyridine-5-carbonitrile]	185 °C (dec.)	
N#Cc1cnc2sc(I)cc2c1Nc1cccc2cc[nH]c12 [Compound 108, 4-(1H-indol-7-ylamino)-2-iodothieno[2,3-b]pyridine-5-carbonitrile]	> 245 °C	
CN(C)Cc1cccc(-c2cc3c(Nc4cnc5[nH]ccc5c4Cl)c(C#N)cnc3s2)c1 [Compound 498, 4-(4-chloro-1H-pyrrolo[2,3-b]pyridin-5-ylamino)-2-(3-((dimethylamino)methyl)phenyl)thieno[2,3-b]pyridine-5-carbonitrile]		0.003
N#Cc1c[n+]([O-])c2sccc2c1Nc1ccc2[nH]ccc2c1 [Compound 499, 4-(1H-indol-5-ylamino)thieno[2,3-b]pyridine-5-carbonitrile-7-oxide]		1.32
CCOC(=O)c1cc2c(Nc3ccc4[nH]ccc4c3)c(C#N)cnc2s1 [Compound 502, ethyl 5-cyano-4-(1H-indol-5-ylamino)thieno[2,3-b]pyridine-2-carboxylate]		1.1
Cc1c(Nc2c(C#N)cnc3scc(C(C)C)c23)ccc2[nH]ccc12 [Compound 503, 3-isopropyl-4-[(4-methyl-1H-indol-5-yl)amino]thieno[2,3-b]pyridine-5-carbonitrile]		0.011
Cc1c(Nc2c(C#N)cnc3sc(-c4cnccn4)cc23)ccc2[nH]ccc12 [Compound 504, 4-[(4-methyl-1H-indol-5-yl)amino]-2-pyrazin-2-ylthieno[2,3-b]pyridine-5-carbonitrile]		0.021
Cc1c(Nc2c(C#N)cnc3sc(-c4cncnc4)cc23)ccc2[nH]ccc12 [Compound 506, 4-[(4-methyl-1H-indol-5-yl)amino]-2-pyrimidin-5-ylthieno[2,3-b]pyridine-5-carbonitrile]		0.017
N#Cc1cnc2sc(I)cc2c1Nc1cnc2[nH]ccc2c1Cl [Compound 507, 4-[(4-chloro-1H-pyrrolo[2,3-b]pyridin-5-yl)amino]-2-iodothieno[2,3-b]pyridine-5-carbonitrile]		0.069
Cc1c(Nc2c(C#N)cnc3sc(-c4cccc(S(=O)(=O)NCCO)c4)cc23)ccc2[nH]ccc12 [Compound 510, 3-{5-cyano-4-[(4-methyl-1H-indol-5-yl)amino]thieno[2,3-b]pyridin-2-yl}-N-(2-hydroxyethyl)benzenesulfonamide]		0.017
Cc1c(Nc2c(C#N)cnc3sc(-c4cc(F)cc(C(=O)N(C)C)c4)cc23)ccc2[nH]ccc12 [Compound 512, 3-{5-cyano-4-[(4-methyl-1H-indol-5-yl)amino]thieno[2,3-b]pyridin-2-yl}-5-fluoro-N,N-dimethylbenzamide]		0.038
COCCOc1ccc(-c2cc3c(Nc4ccc5[nH]ccc5c4C)c(C#N)cnc3s2)cc1OCCOC [Compound 513, 2-[3,4-bis(2-methoxyethoxy)phenyl]-4-[(4-methyl-1H-indol-5-yl)amino]thieno[2,3-b]pyridine-5-carbonitrile]		1.61
CC(C)c1c(-c2cccc(CN(C)C)c2)sc2ncc(C#N)c(Nc3ccc4[nH]ccc4c3)c12 [Compound 516, 2-{3-[(dimethylamino)methyl]phenyl}-4-(1H-indol-5-ylamino)-3-isopropylthieno[2,3-b]pyridine-5-carbonitrile]		1.21
Cc1c(Nc2c(C#N)cnc3sc(-c4cccc(N5CCCS5(=O)=O)c4)cc23)ccc2[nH]ccc12 [Compound 519, 2-[3-(1,1-dioxidoisothiazolidin-2-yl)phenyl]-4-[(4-methyl-1H-indol-5-yl)amino]thieno[2,3-b]pyridine-5-carbonitrile]		0.049
Cc1c(Nc2c(C#N)cnc3sc(-c4ccc5[nH]ccc5c4)cc23)ccc2[nH]ccc12 [Compound 520, 2-(1H-indol-5-yl)-4-[(4-methyl-1H-indol-5-yl)amino]thieno[2,3-b]pyridine-5-carbonitrile]		0.074
Cc1c(Nc2c(C#N)cnc3sc(-c4ccc5cc[nH]c5c4)cc23)ccc2[nH]ccc12 [Compound 521, 2-(1H-indol-6-yl)-4-[(4-methyl-1H-indol-5-yl)amino]thieno[2,3-b]pyridine-5-carbonitrile]		0.037
Cc1ccc(S(=O)(=O)n2ccc3c(Cl)c(Nc4c(C#N)cnc5sc(I)cc45)cnc32)cc1 [Compound 522, 4-({4-chloro-1-[(4-methylphenyl)sulfonyl]-1H-pyrrolo[2,3-b]pyridin-5-yl}amino)-2-iodothieno[2,3-b]pyridine-5-carbonitrile]		14.1
Cc1c(Nc2c(C#N)cnc3sc(-c4cccnn4)cc23)ccc2[nH]ccc12 [Compound 523, 4-[(4-methyl-1H-indol-5-yl)amino]-2-pyridazin-3-ylthieno[2,3-b]pyridine-5-carbonitrile]		0.015
N#Cc1cnc2sc(-c3ccccc3)cc2c1Nc1cnc2[nH]ccc2c1Cl [Compound 524, 4-[(4-chloro-1H-pyrrolo[2,3-b]pyridin-5-yl)amino]-2-phenylthieno[2,3-b]pyridine-5-carbonitrile]		0.048
Cc1c(Nc2c(C#N)cnc3sc(-c4ccnn4C)cc23)ccc2[nH]ccc12 [Compound 527, 4-[(4-methyl-1H-indol-5-yl)amino]-2-(1-methyl-1H-pyrazol-5-yl)thieno[2,3-b]pyridine-5-carbonitrile]		0.035

The remaining lines, values ahead:

melting point	IC50 [1] [µM]	Compound
	0.05	Cc1c(Nc2c(C#N)cnc3sc(-c4ccccc4OC[C@@H](O)CO)cc23)ccc2[nH]ccc12 [Compound 492, 2-(2-{[(2S)-2,3-dihydroxypropyl]-oxy}phenyl)-4-[(4-methyl-1H-indol-5-yl)amino]thieno[2,3-b]pyridine-5-carbonitrile]
	0.045	Cc1c(Nc2c(C#N)cnc3sc(-c4ccccc4OC[C@H](O)CO)cc23)ccc2[nH]ccc12 [Compound 493, 2-(2-{[(2R)-2,3-dihydroxypropyl]-oxy}phenyl)-4-[(4-methyl-1H-indol-5-yl)amino]thieno[2,3-b]pyridine-5-carbonitrile]
	0.113	Cc1c(Nc2c(C#N)cnc3sc(-c4cccc5[nH]ccc45)cc23)ccc2[nH]ccc12 [Compound 505, 2-(1H-indol-4-yl)-4-[(4-methyl-1H-indol-5-yl)amino]thieno[2,3-b]pyridine-5-carbonitrile]
	0.011	Cc1c(Nc2c(C#N)cnc3scc(-c4cccc(CN(C)C)c4)c23)ccc2[nH]ccc12 [Compound 508, 3-{3-[(dimethylamino)methyl]phenyl}-4-[(4-methyl-1H-indol-5-yl)amino]thieno[2,3-b]pyridine-5-carbonitrile]
	0.051	Cc1c(Nc2c(C#N)cnc3sc(-c4cccc(NS(=O)(=O)N(C)C)c4)cc23)ccc2[nH]ccc12 [Compound 509, N′-(3-{5-cyano-4-[(4-methyl-1H-indol-5-yl)amino]thieno[2,3-b]pyridin-2-yl}phenyl)-N,N-dimethylsulfamide]
	0.066	Cc1c(Nc2c(C#N)cnc3sc(-c4cc(C(=O)N(C)C)ccc4F)cc23)ccc2[nH]ccc12 [Compound 511, 3-{5-cyano-4-[(4-methyl-1H-indol-5-yl)amino]thieno[2,3-b]pyridin-2-yl}-4-fluoro-N,N-dimethylbenzamide]
	0.071	COc1ccc(C=O)c(-c2cc3c(Nc4ccc5[nH]ccc5c4C)c(C#N)cnc3s2)c1 [Compound 514, 2-(2-formyl-5-methoxyphenyl)-4-[(4-methyl-1H-indol-5-yl)amino]thieno[2,3-b]pyridine-5-carbonitrile]
	0.016	COc1ccc(CN(C)C)c(-c2cc3c(Nc4ccc5[nH]ccc5c4C)c(C#N)cnc3s2)c1 [Compound 515, 2-{2-[(dimethylamino)methyl]-5-methoxyphenyl}-4-[(4-methyl-1H-indol-5-yl)amino]thieno[2,3-b]pyridine-5-carbonitrile]
	0.002	COc1ccc(CNCCO)cc1-c1cc2c(Nc3ccc4[nH]ccc4c3C)c(C#N)cnc2s1 [Compound 517, 2-(5-{[(2-hydroxyethyl)amino]methyl}-2-methoxyphenyl)-4-[(4-methyl-1H-indol-5-yl)amino]thieno[2,3-b]pyridine-5-carbonitrile]
	0.059	Cc1c(Nc2c(C#N)cnc3sc(-c4ccc(F)c(C(=O)N(C)C)c4)cc23)ccc2[nH]ccc12 [Compound 518, 5-{5-cyano-4-[(4-methyl-1H-indol-5-yl)amino]thieno[2,3-b]pyridin-2-yl}-2-fluoro-N,N-dimethylbenzamide]
	0.015	COc1c(C=O)cccc1-c1cc2c(Nc3ccc4[nH]ccc4c3C)c(C#N)cnc2s1 [Compound 525, 2-(3-formyl-2-methoxyphenyl)-4-[(4-methyl-1H-indol-5-yl)amino]thieno[2,3-b]pyridine-5-carbonitrile]
	0.012	COc1c(CN(C)C)cccc1-c1cc2c(Nc3ccc4[nH]ccc4c3C)c(C#N)cnc2s1 [Compound 526, 2-{3-[(dimethylamino)methyl]-2-methoxyphenyl}-4-[(4-methyl-1H-indol-5-yl)amino]thieno[2,3-b]pyridine-5-carbonitrile]
